This experiment concerns the target KRas G12C (Homo sapiens, UniProt P01116, G12C). The experiment in a line: Inhibition of KRas G12C in NCI-H358 cells measured by phosphorylated ERK (Phospho-ERK). It is filed as cell-based. Conditions: 3 hours, 4 parameter fit, read-out: IC50 (pERK(Thr202/Tyr204) signal normalized with GAPDH). The protocol: Cells were plated in poly-D-Lysine coated 96-well plates at a concentration of 50,000 cells/well and allowed to attach for 8-12 hours. Diluted compounds were then added at a final concentration of 0.5% DMSO. After 3 hours, the medium was removed, 150 μL of 4% formaldehyde was added and the plates were incubated for 20 minutes. The plates were washed with PBS, and permeabilized using 150 μL of ice cold 100% methanol for 10 minutes. Non-specific antibody binding to the plates was blocked using 100 μL Licor Blocking Buffer (Li-Cor Biotechnology, Lincoln Nebr.) for 1 hour at room temperature. Positive control samples and samples lacking cells were parallel processed with test samples as standards.
The amount Phospho-ERK was determined using an antibody specific for the phosphorylated form of ERK and compared to the amount of GAPDH. […] The plates were incubated for 2 hours at room temperature. The plates were washed with PBS+0.05% Tween 20.
Secondary antibodies used to visualize primary antibodies were added as follows: Anti-rabbit-680 diluted 1:1000 and Anti-mouse-800 diluted 1:1000 in Licor Block+0.05% Tween 20 and incubated for 1 hour at room temperature. The plates were washed with PBS+0.05% Tween 20. A 100 μL aliquot of PBS was added to each well and the plates were read on a LICOR AERIUS plate reader.
The pERK(Thr202/Tyr204) signal was normalized with the GAPDH signal and percent of DMSO control values were calculated. IC50 values were generated using a 4 parameter fit of the dose response curve.

Chain of KRas G12C (P01116 1-188 isoform P01116-2 G12C): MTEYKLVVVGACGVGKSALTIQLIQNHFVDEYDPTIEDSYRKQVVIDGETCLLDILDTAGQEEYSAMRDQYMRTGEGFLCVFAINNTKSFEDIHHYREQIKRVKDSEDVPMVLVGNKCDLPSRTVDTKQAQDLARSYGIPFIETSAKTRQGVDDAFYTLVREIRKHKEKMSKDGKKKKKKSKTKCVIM

For the molecule `CN1CC(F)(F)C[C@H]1COc1nc2c(c(N3CCN(C(=O)/C=C/CN4CC(F)C4)[C@@H](CC#N)C3)n1)CCN(c1cccc3cccc(Cl)c13)C2` [Example 57, 2-((S)-4-(7-(8-chloronaphthalen-1-yl)-2-(((S)-4,4-difluoro-1-methylpyrrolidin-2-yl)methoxy)-5,6,7,8-tetrahydropyrido[3,4-d]pyrimidin-4-yl)-1-((E)-4-(3-fluoroazetidin-1-yl)but-2-enoyl)piperazin-2-yl)acetonitrile], the IC50 was 1000 to 10000 nM.

With `COC/C=C/C(=O)N1CCN(c2nc(OC[C@@H]3CC(F)(F)CN3C)nc3c2CCN(c2cccc4cccc(C)c24)C3)C[C@@H]1CC#N` [Example 60, 2-((S)-4-(2-(((S)-4,4-difluoro-1-methylpyrrolidin-2-yl)methoxy)-7-(8-methylnaphthalen-1-yl)-5,6,7,8-tetrahydropyrido[3,4-d]pyrimidin-4-yl)-1-((E)-4-methoxybut-2-enoyl)piperazin-2-yl)acetonitrile], the IC50 fell in the range of 0.1 to 1000 nM.

As for `C=C(F)C(=O)N1CCN(c2nc(OCC3CCN3C(C)(C)C)nc3c2CCN(c2cccc4cccc(C)c24)C3)C[C@@H]1CC#N` (stereo partly drawn) [Example 74, 2-((2S)-4-(2-((1-(tert-butyl)azetidin-2-yl)methoxy)-7-(8-methylnaphthalen-1-yl)-5,6,7,8-tetrahydropyrido[3,4-d]pyrimidin-4-yl)-1-(2-fluoroacryloyl)piperazin-2-yl)acetonitrile], the IC50 is 0.1 to 1000 nM.

`C=C(F)C(=O)N1CCN(c2nc(OCC34CCCN3CCC4)nc3c2CCN(c2cccc4cccc(Cl)c24)C3)C[C@@H]1CC#N` [Example 105, (S)-2-(4-(7-(8-chloronaphthalen-1-yl)-2-((tetrahydro-1H-pyrrolizin-7a(5H)-yl)methoxy)-5,6,7,8-tetrahydropyrido[3,4-d]pyrimidin-4-yl)-1-(2-fluoroacryloyl)piperazin-2-yl)acetonitrile]: the IC50 is 0.1 to 1000 nM.

For the molecule `C=C(F)C(=O)N1CCN(c2nc(OC3CCN(C4CCOCC4)CC3)nc3c2CCN(c2cccc4cccc(Cl)c24)C3)C[C@@H]1CC#N` [Example 130, (S)-2-(4-(7-(8-chloronaphthalen-1-yl)-2-((1-(tetrahydro-2H-pyran-4-yl)piperidin-4-yl)oxy)-5,6,7,8-tetrahydropyrido[3,4-d]pyrimidin-4-yl)-1-(2-fluoroacryloyl)piperazin-2-yl)acetonitrile], the IC50 lay within 1000 to 10000 nM.

With `C=C(F)C(=O)N1CCN(c2nc(OC[C@@H]3CCCN3C)nc3c2CCN(c2cccc4ccc(F)c(C)c24)C3)C[C@@H]1CC#N` [Example 131, 2-((S)-4-(7-(7-fluoro-8-methylnaphthalen-1-yl)-2-(((S)-1-methylpyrrolidin-2-yl)methoxy)-5,6,7,8-tetrahydropyrido[3,4-d]pyrimidin-4-yl)-1-(2-fluoroacryloyl)piperazin-2-yl)acetonitrile], the IC50 was in the range of 0.1 to 1000 nM.

For `C=C(F)C(=O)N1CCN(c2nc(OC[C@@H]3CCCN3C)nc3c2CCN(c2cccc4ccc(F)c(Cl)c24)C3)C[C@@H]1CC#N` [Example 133], the IC50 lay in the range of 0.1 to 1000 nM.

Take `C=C(F)C(=O)N1CCN(c2nc(OC[C@@H]3CCCN3C)nc3c2CCN(c2cccc4c2CCC4)C3)C[C@@H]1CC#N` [Example 135]: the IC50 is 0.1 to 1000 nM.

Consider `C=C(F)C(=O)N1CCN(c2nc(OC[C@@H]3CCCN3C)nc3c2CCN(c2cccc4ccc(F)c(F)c24)C3)C[C@@H]1CC#N` [Example 136], for which the IC50 is 0.1 to 1000 nM.

For `C=C(F)C(=O)N1CCN(c2nc(OC[C@@H]3CCCN3C)nc3c2CCN(c2cccc4ccc(Cl)c(Cl)c24)C3)C[C@@H]1CC#N` [Example 137], the IC50 lay in the range of 1000 to 10000 nM.

Regarding `C=C(F)C(=O)N1CCN(c2nc(OCC34CCCN3CCC4)nc3c2CCN(c2cccc4ccc(F)c(Cl)c24)C3)C[C@@H]1CC#N` [Example 138, (S)-2-(4-(7-(8-chloro-7-fluoronaphthalen-1-yl)-2-((tetrahydro-1H-pyrrolizin-7a(5H)-yl)methoxy)-5,6,7,8-tetrahydropyrido[3,4-d]pyrimidin-4-yl)-1-(2-fluoroacryloyl)piperazin-2-yl)acetonitrile], the IC50 was in the range of 0.1 to 1000 nM.

Consider `C=C(F)C(=O)N1CCN(c2nc(OCC3(C)CCCN3C)nc3c2CCN(c2cccc4ccc(F)c(Cl)c24)C3)C[C@@H]1CC#N` (stereo partly drawn) [Example 139, 2-((2S)-4-(7-(8-chloro-7-fluoronaphthalen-1-yl)-2-((1,2-dimethylpyrrolidin-2-yl)methoxy)-5,6,7,8-tetrahydropyrido[3,4-d]pyrimidin-4-yl)-1-(2-fluoroacryloyl)piperazin-2-yl)acetonitrile], for which the IC50 is 0.1 to 1000 nM.

Regarding `C=C(F)C(=O)N1CCN(c2nc(OCC34CCCN3CCC4)nc3c2CCN(c2cccc(F)c2C(F)(F)F)C3)C[C@@H]1CC#N` [Example 140], the IC50 is 0.1 to 1000 nM.

For `C=C(F)C(=O)N1CCN(c2nc(OCC34CCCN3CCC4)nc3c2CCN(c2cccc(Cl)c2C(F)(F)F)C3)C[C@@H]1CC#N` [Example 141], the IC50 was in the range of 0.1 to 1000 nM.

In the case of `C=C(F)C(=O)N1CCN(c2nc(OCC34CCCN3CCC4)nc3c2CCN(c2cccc(C)c2C)C3)C[C@@H]1CC#N` [Example 142], the IC50 lay within 0.1 to 1000 nM.

As for `C=C(F)C(=O)N1CCN(c2nc(OCC34CCCN3CCC4)nc3c2CCN(c2cccc4cccc(Br)c24)C3)C[C@@H]1CC#N` [Example 143], the IC50 lay in the range of 0.1 to 1000 nM.

For `C=C(F)C(=O)N1CCN(c2nc(OCC34CCCN3CCC4)nc3c2CCN(c2cccc(C)c2C(F)(F)F)C3)C[C@@H]1CC#N` [Example 144], the IC50 lay in the range of 0.1 to 1000 nM.

On to `C=C(F)C(=O)N1CCN(c2nc(OCC34CCCN3C(=O)CC4)nc3c2CCN(c2cccc4ccc(F)c(Cl)c24)C3)C[C@@H]1CC#N` (stereo partly shown) [Example 145], for which the IC50 fell in the range of 1000 to 10000 nM.

For `C=C(F)C(=O)N1CCN(c2nc(OCC34CCCN3CCC4)nc3c2CCN(c2cccc4ccccc24)C3)C[C@@H]1CC#N` [Example 146], the IC50 lay within 0.1 to 1000 nM.

As for `C=C(F)C(=O)N1CCN(c2nc(OC[C@@H]3CCCN3C(C)C)nc3c2CCN(c2cccc4ccc(F)c(Cl)c24)C3)C[C@@H]1CC#N` [Example 147, 2-((S)-4-(7-(8-chloro-7-fluoronaphthalen-1-yl)-2-(((S)-1-isopropylpyrrolidin-2-yl)methoxy)-5,6,7,8-tetrahydropyrido[3,4-d]pyrimidin-4-yl)-1-(2-fluoroacryloyl)piperazin-2-yl)acetonitrile], the IC50 was 0.1 to 1000 nM.

As to `C=C(F)C(=O)N1CCN(c2nc(OCCN(C)CC(F)(F)F)nc3c2CCN(c2cccc4ccc(F)c(Cl)c24)C3)C[C@@H]1CC#N` [Example 148, (S)-2-(4-(7-(8-chloro-7-fluoronaphthalen-1-yl)-2-(2-(methyl(2,2,2-trifluoroethyl)amino)ethoxy)-5,6,7,8-tetrahydropyrido[3,4-d]pyrimidin-4-yl)-1-(2-fluoroacryloyl)piperazin-2-yl)acetonitrile], the IC50 fell in the range of 1000 to 10000 nM.

Consider `C=C(F)C(=O)N1CCN(c2nc(OC3CC4(C3)CN(C)C4)nc3c2CCN(c2cccc4ccc(F)c(Cl)c24)C3)C[C@@H]1CC#N` [Example 149], for which the IC50 was in the range of 1000 to 10000 nM.

As for `C=C(F)C(=O)N1CCN(c2nc(OC3CCN(C(C)C)C3)nc3c2CCN(c2cccc4ccc(F)c(Cl)c24)C3)C[C@@H]1CC#N` (stereo partly shown) [Example 150], the IC50 lay within 0.1 to 1000 nM.

On to `C=C(F)C(=O)N1CCN(c2nc(OCC34CCCCN3CCC4)nc3c2CCN(c2cccc4ccc(F)c(Cl)c24)C3)C[C@@H]1CC#N` (stereo partly shown) [Example 151], for which the IC50 is 0.1 to 1000 nM.

As to `C=C(F)C(=O)N1CCN(c2nc(OC3CCCN(C(C)C)C3)nc3c2CCN(c2cccc4ccc(F)c(Cl)c24)C3)C[C@@H]1CC#N` (stereo partly shown) [Example 152], the IC50 is 1000 to 10000 nM.

For the molecule `C=C(F)C(=O)N1CCN(c2nc(O[C@H]3CCC[C@@H]3N(C)C)nc3c2CCN(c2cccc4ccc(F)c(Cl)c24)C3)C[C@@H]1CC#N` [Example 153], the IC50 was 1000 to 10000 nM.

As for `C=C(F)C(=O)N1CCN(c2nc(OC3CN4CCC3CC4)nc3c2CCN(c2cccc4ccc(F)c(Cl)c24)C3)C[C@@H]1CC#N` (stereo partly shown) [Example 154], the IC50 was 1000 to 10000 nM.

Take `C=C(F)C(=O)N1CCN(c2nc(OCC34COCN3COC4)nc3c2CCN(c2cccc4ccc(F)c(Cl)c24)C3)C[C@@H]1CC#N` [Example 155]: the IC50 lay in the range of 0.1 to 1000 nM.

Take `C=C(F)C(=O)N1CCN(c2nc(OCC34CCCN3C[C@H](F)C4)nc3c2CCN(c2cccc4ccc(F)c(Cl)c24)C3)C[C@@H]1CC#N` (stereo partly shown) [Example 156]: the IC50 was in the range of 0.1 to 1000 nM.

`C=C(F)C(=O)N1CCN(c2nc(OC3CN(CCC#N)C3)nc3c2CCN(c2cccc4ccc(F)c(Cl)c24)C3)C[C@@H]1CC#N` [Example 157]: the IC50 was 1000 to 10000 nM.

In the case of `C=C(F)C(=O)N1CCN(c2nc(OCC(C)N3CCCCC3)nc3c2CCN(c2cccc4ccc(F)c(Cl)c24)C3)C[C@@H]1CC#N` (stereo partly shown) [Example 158], the IC50 lay within 0.1 to 1000 nM.

Consider `C=C(F)C(=O)N1CCN(c2nc(OCCN(CC)CC)nc3c2CCN(c2cccc4ccc(F)c(Cl)c24)C3)C[C@@H]1CC#N` [Example 159], for which the IC50 fell in the range of 0.1 to 1000 nM.

Regarding `C=C(F)C(=O)N1CCN(c2nc(OCC3CC4(CC4)CN3C)nc3c2CCN(c2cccc4ccc(F)c(Cl)c24)C3)C[C@@H]1CC#N` (stereo partly shown) [Example 160], the IC50 was 0.1 to 1000 nM.

Consider `C=C(F)C(=O)N1CCN(c2nc(OCC3COCCC34CN(C)C4)nc3c2CCN(c2cccc4ccc(F)c(Cl)c24)C3)C[C@@H]1CC#N` (stereo partly shown) [Example 161], for which the IC50 lay within 0.1 to 1000 nM.
